Target: Rv1466 (Mycobacterium tuberculosis, UniProt O53157)
Assay: biochemical
Assay type: binding

Sequence of Rv1466 (O53157 entry or part of it): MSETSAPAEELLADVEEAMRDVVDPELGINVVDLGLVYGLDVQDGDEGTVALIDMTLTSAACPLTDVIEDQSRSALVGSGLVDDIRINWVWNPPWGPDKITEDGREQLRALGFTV

O=C1C=C[C@@H]2O[C@H](c3ccccc3)[C@@H](O)[C@@H]2O1 [altholactone]
Kd: 42 ± 6.1 µM
